Biological target: P. falciparum apicoplast DNA polymerase (Pf-apPOL) (Plasmodium falciparum, UniProt Q8ILY1)
Assay: Fluorescence-based high-throughput DNA polymerase assay (molecular beacon), primary screen and dose-response;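 on % inhibition ApPOL 90': test concentration in µM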;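 on % inhibition apPOL 180': test concentration in µM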
Format: biochemical
Conditions: for DNA Pol: 90 min, 10 µM; for % inhibition Apol 40': DRC-2, 40'
Summary of the method: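 Single-point screening used 10 µM compound with 20 nM polymerase, 20 nM hairpin substrate and 6 µM dNTPs for 90 min at 25 °C. Confirmatory titrations (2.5–80 µM) followed fluorescence at three times, and IC50 was derived from a fit including a cooperativity term n.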

P. falciparum apicoplast DNA polymerase (Pf-apPOL), sequence (Q8ILY1 entry or part of it): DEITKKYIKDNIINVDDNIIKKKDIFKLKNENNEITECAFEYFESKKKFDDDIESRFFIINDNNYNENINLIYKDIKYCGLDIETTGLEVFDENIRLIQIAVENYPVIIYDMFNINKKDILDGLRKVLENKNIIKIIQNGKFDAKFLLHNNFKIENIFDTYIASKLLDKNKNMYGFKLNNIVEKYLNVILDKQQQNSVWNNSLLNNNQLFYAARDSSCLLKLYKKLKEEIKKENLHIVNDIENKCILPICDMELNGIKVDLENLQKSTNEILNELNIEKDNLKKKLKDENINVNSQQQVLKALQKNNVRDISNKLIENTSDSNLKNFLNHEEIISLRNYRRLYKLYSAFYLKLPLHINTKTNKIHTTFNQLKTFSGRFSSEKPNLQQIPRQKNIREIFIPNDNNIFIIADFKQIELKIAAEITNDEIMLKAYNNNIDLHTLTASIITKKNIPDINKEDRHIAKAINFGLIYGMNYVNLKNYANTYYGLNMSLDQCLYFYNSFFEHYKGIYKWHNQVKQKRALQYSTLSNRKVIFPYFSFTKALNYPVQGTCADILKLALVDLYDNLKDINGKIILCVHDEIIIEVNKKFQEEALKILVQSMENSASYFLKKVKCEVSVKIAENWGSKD

COc1cc(/C=C2\S/C(=N/C(C)=O)NC2=O)cc(Br)c1OCC(=O)O [KU0057841]
DNA Pol ('DNA Pol', screening value, unit not given): 27
% inhibition Apo pol 10' (DRC-1, concentration 2.5): 4.866%
% inhibition Apo pol 10' (DRC-1, concentration 5): 4.738%
% inhibition Apo pol 10' (DRC-1, concentration 10): 17.12%
% inhibition Apo pol 10' (DRC-1, concentration 20): 35.9073%
% inhibition Apo pol 10' (DRC-1, concentration 40): 63.4189%
% inhibition Apo pol 10' (DRC-1, concentration 80): 83.5237%
% inhibition Apol 90' (DRC-1, 90', concentration 2.5): 3.601%
% inhibition Apol 90' (DRC-1, 90', concentration 5): -2.326%
% inhibition Apol 90' (DRC-1, 90', concentration 10): 5.395%
% inhibition Apol 90' (DRC-1, 90', concentration 20): 16.7076%
% inhibition Apol 90' (DRC-1, 90', concentration 40): 36.5505%
% inhibition Apol 90' (DRC-1, 90', concentration 80): 62.7524%
% inhibition apPOL 180' (DRC-1, 180', concentration 2.5): 1.284%
% inhibition apPOL 180' (DRC-1, 180', concentration 5): -7.5244%
% inhibition apPOL 180' (DRC-1, 180', concentration 10): -2.004%
% inhibition apPOL 180' (DRC-1, 180', concentration 20): 5.338%
% inhibition apPOL 180' (DRC-1, 180', concentration 40): 19.6206%
% inhibition apPOL 180' (DRC-1, 180', concentration 80): 44.2464%
% inhibition Apo pol 5' (DRC-2, 5', concentration 2.5): 2.71%
% inhibition Apo pol 5' (DRC-2, 5', concentration 5): 4.4%
% inhibition Apo pol 5' (DRC-2, 5', concentration 10): 17%
% inhibition Apo pol 5' (DRC-2, 5', concentration 20): 29%
% inhibition Apo pol 5' (DRC-2, 5', concentration 40): 52%
% inhibition Apo pol 5' (DRC-2, 5', concentration 80): 60%
% inhibition Apol 40' (concentration 2.5): 1.51%
% inhibition Apol 40' (concentration 5): 3.29%
% inhibition Apol 40' (concentration 10): 13%
% inhibition Apol 40' (concentration 20): 24%
% inhibition Apol 40' (concentration 40): 47%
% inhibition Apol 40' (concentration 80): 64%
% inhibition ApPOL 90' (DRC-2, 90', concentration 2.5): 1.23%
% inhibition ApPOL 90' (DRC-2, 90', concentration 5): 2.28%
% inhibition ApPOL 90' (DRC-2, 90', concentration 10): 9.51%
% inhibition ApPOL 90' (DRC-2, 90', concentration 20): 20%
% inhibition ApPOL 90' (DRC-2, 90', concentration 40): 41%
% inhibition ApPOL 90' (DRC-2, 90', concentration 80): 60%
% inhibition apPOL 180' (DRC-2, 180', concentration 2.5): 1.62%
% inhibition apPOL 180' (DRC-2, 180', concentration 5): -1.41%
% inhibition apPOL 180' (DRC-2, 180', concentration 10): 4%
% inhibition apPOL 180' (DRC-2, 180', concentration 20): 14%
% inhibition apPOL 180' (DRC-2, 180', concentration 40): 28%
% inhibition apPOL 180' (DRC-2, 180', concentration 80): 49%
% inhibition Apo pol 5' (conc 80 (unit not given), 5', DRC-2): 60%
% inhibition ApPOL 90' (conc 80 (unit not given), 90', DRC-2): 60%
DNA Pol (primary screen hit value, DNA Pol (186 hits)): 27

— PMC9090415, “Discovery of small molecule inhibitors of Plasmodium falciparum apicoplast DNA polymerase” (Journal of Enzyme Inhibition and Medicinal Chemistry, 2022)
